Experimental data as given in PubChem BioAssay (NCI).
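How tested: cells in 96-well plates exposed to compound for 48 hours at five concentrations. The concentration for 50% growth inhibition is given as GI50. TGI denotes the concentration required for complete inhibition of growth.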

How the values were obtained:
Test in all cases: NCI-60 cell line screen, 48 h
U251 CNS = tested on: U251 CNS
SW-620 colon = tested on: SW-620 colon
CCRF-CEM leukemia = tested on: CCRF-CEM leukemia
HS 578T breast = tested on: HS 578T breast
M14 melanoma = tested on: M14 melanoma
SNB-75 CNS = tested on: SNB-75 CNS
UO-31 renal = tested on: UO-31 renal
OVCAR-3 ovarian = tested on: OVCAR-3 ovarian
HCC-2998 colon = tested on: HCC-2998 colon
MDA-N = tested on: MDA-N
MDA-MB-231 breast = tested on: MDA-MB-231 breast
SR leukemia = tested on: SR leukemia

Compound	TGI (U251 CNS)	TGI (SW-620 colon)	TGI (CCRF-CEM leukemia)	TGI (HS 578T breast)	TGI (M14 melanoma)	TGI (SNB-75 CNS)	TGI (UO-31 renal)	TGI (OVCAR-3 ovarian)	TGI (HCC-2998 colon)	TGI (MDA-N)	TGI (MDA-MB-231 breast)	TGI (SR leukemia)	GI50 (SNB-75 CNS)
O=C1CCCCC/C1=C\c1cccc(Cl)c1	> 100 µM	60.1 µM	30.4 µM	94.3 µM	> 100 µM	> 100 µM	> 100 µM	> 100 µM	> 100 µM	> 100 µM	> 100 µM	> 100 µM	–
CC(=O)NC1C(OCc2ccccc2)OC(CO)C(O)C1OC(C)C(=O)NC(C(=O)N[C@@H](CCC(=O)NCCNCCNc1c2ccccc2nc2cccc([N+](=O)[O-])c12)C(N)=O)C(C)C (some centres not stated)	> 100 µM	58.5 µM	> 100 µM	> 100 µM	32.2 µM	> 100 µM	64.6 µM	> 100 µM	50.4 µM	54.5 µM	> 100 µM	5.24 µM	–
O=C1/C(=C/c2ccccc2O)N=C(c2ccccc2)N1C1Nc2cc3c(cc2S1)NC(N1C(=O)/C(=C/c2ccccc2O)N=C1c1ccccc1)S3 (configuration not stated)	> 100 µM	> 100 µM	> 100 µM	> 100 µM	> 100 µM	–	> 100 µM	> 100 µM	> 100 µM	> 100 µM	> 100 µM	> 100 µM	–
Nc1ncnn2c(C3OC(CO)C(O)C3O)ccc12 (configuration not stated)	4.14 µM	35.1 µM	0.627 µM	0.275 µM	0.413 µM	0.866 µM	0.494 µM	0.52 µM	2.71 µM	0.693 µM	1.11 µM	0.837 µM	–
COC1(OC)c2no[n+]([O-])c2CCC1O (configuration not stated)	–	> 100 µM	> 100 µM	> 100 µM	> 100 µM	–	> 100 µM	> 100 µM	> 100 µM	> 100 µM	> 100 µM	> 100 µM	–
COC(=O)/C=C(/C)n1nc2ccccc2n1	> 100 µM	> 100 µM	> 100 µM	> 100 µM	> 100 µM	> 100 µM	> 100 µM	> 100 µM	> 100 µM	> 100 µM	> 100 µM	> 100 µM	–
CC[C@]1(Cc2ccc(OC)c(OC)c2)C=[N+]([O-])O[C@H](OC2CCCC2(c2ccccc2)c2ccccc2)[C@@H]1OC(=O)c1ccccc1 (some centres not stated)	> 100 µM	> 100 µM	> 30.1 µM	> 100 µM	> 100 µM	> 37.9 µM	> 100 µM	13.7 µM	> 27.4 µM	> 100 µM	> 100 µM	> 100 µM	–
Cc1nc2ccccc2n1COC(Cn1ccnc1)c1ccc(Cl)cc1Cl (configuration not stated)	> 100 µM	> 100 µM	> 100 µM	> 100 µM	> 100 µM	> 100 µM	> 100 µM	> 100 µM	> 100 µM	> 100 µM	> 100 µM	> 100 µM	–
COCCOC(=O)c1c(C)n([O-])c2cc(Cl)c(Cl)cc2[n+]1=O	> 100 µM	65.3 µM	64.7 µM	> 100 µM	41.9 µM	–	10.5 µM	34.5 µM	–	> 100 µM	53.8 µM	18.9 µM	–
O=C(CN1CCCCC1)Nc1ccc2sc3ccccc3c(=O)c2n1	35.1 µM	31.4 µM	> 100 µM	45.2 µM	41.4 µM	32.3 µM	21.6 µM	> 100 µM	36.8 µM	28.7 µM	59.9 µM	> 100 µM	–
CSc1nc(C#N)c(/N=C\N(C)C)n1C	> 100 µM	> 100 µM	> 100 µM	> 100 µM	> 100 µM	–	> 100 µM	> 100 µM	–	> 100 µM	> 100 µM	> 100 µM	–
O=C(ON=C1c2ccccc2C(Br)C(Br)c2ccccc21)c1cc([N+](=O)[O-])cc([N+](=O)[O-])c1 (configuration not stated)	30.2 µM	40.5 µM	3.65 µM	61.6 µM	33.6 µM	30.2 µM	–	35.5 µM	68.3 µM	48.8 µM	35.6 µM	26.9 µM	–
CCOC(=O)c1cnc2oc3ccc(O)cc3c2c1C	> 100 µM	> 100 µM	> 100 µM	> 100 µM	> 100 µM	82.9 µM	–	> 100 µM	> 100 µM	> 100 µM	> 100 µM	> 100 µM	26 µM
CC(C)OC(=O)c1ccc(NCc2cc(O)ccc2O)cc1Cl	24.6 µM	> 62.5 µM	–	> 100 µM	> 100 µM	31.1 µM	2.38 µM	> 42.2 µM	17.3 µM	22.6 µM	> 54 µM	8.6 µM	–
Cc1ccc(S(=O)(=O)n2cc(-c3cc(C(F)(F)F)ccn3)c3cc(Br)ccc32)cc1	34.3 µM	> 100 µM	> 100 µM	41.3 µM	> 100 µM	–	24.7 µM	30.7 µM	62.6 µM	> 100 µM	46.5 µM	> 100 µM	–
C=CCNC1=C2C[C@@H](C)C[C@@H](OC)[C@H](OC(=O)CCN)[C@H](C)/C=C(\C)[C@@H](OC(N)=O)[C@H](OC)/C=C\C=C(/C)C(=O)NC(=CC1=O)C2=O	18.8 µM	> 100 µM	–	52.9 µM	17.3 µM	9.63 µM	24.2 µM	6.56 µM	3.61 µM	11.2 µM	17.7 µM	> 100 µM	–
Cn1c(=O)c(Br)c(C=O)n(CCO[N+](=O)[O-])c1=O	9.77 µM	5.45 µM	5.25 µM	> 100 µM	15 µM	27 µM	–	–	32 µM	17.3 µM	8.4 µM	5.48 µM	–
CCOC(=O)/C(C#N)=C\c1ccc(N(CCC(=O)O)CCC(=O)O)c(I)c1	–	> 10 µM	> 10 µM	> 10 µM	> 10 µM	> 10 µM	> 10 µM	–	> 10 µM	> 10 µM	> 10 µM	> 10 µM	–
O=C1C(Cl)C2(CC(/C=C/c3ccccc3Cl)=NN2c2cccc(S(=O)(=O)O)c2)N1c1nc2ccccc2s1 (configuration not stated)	> 100 µM	> 100 µM	33.9 µM	> 100 µM	> 100 µM	> 100 µM	16.3 µM	–	> 100 µM	> 100 µM	> 100 µM	25.3 µM	–
